This assay deals with CHO cells. The assay can be described thus: Reflection interference measurement of membrane potential change (depolarization) after KCl dispensation, Measurement Example 1. The class given is cell-based, Chinese hamster. As to conditions: for change rate of average luminosity at the peak: peak slightly over five minutes, FIG. 11. An excerpt:
The functions and operation of the processing unit 20 will be described further referring to the flowchart of FIG. 7. First, the reflection interference image of adhesion faces of cells 101 is obtained by the reflection interference detection camera 110 (step S101, corresponding to “reflection interference imaging step” in the scope of claims). The amplitude of interfering light differs according to the distance of each cell 101 adhering onto the substrate as the bottom surface of the vessel 102 from the substrate as the bottom surface of the vessel 102, and the reflection interference image is taken as a contrast of bright and dark patterns. Next, correction is made for shading of reflected light in the field of the reflection interference image. In addition, an offset correction for background part is carried out in each time unit, so as to prevent temporal variation in value of the background without the cells 101. Through these image arithmetic corrections, we can obtain the reflection interference image with little spatial and temporal variation.
The reflection interference detection camera 110 acquires reflection interference images, for example, at intervals of one second. The intervals of acquisition of reflection interference images are preferably suitably controlled according to a rate of change of membrane potential of the cells 101. After a fixed time from a start of acquisition of image by the reflection interference detection camera 110, a chemical dispensing operation of the dispenser 117 is performed to dispense an intended chemical in an intended concentration to the solution in which the cells 101 are immersed.
The analysis unit 202 calculates a parameter about adhesion between each cell 101 and the transparent member 102a using the reflection interference images obtained intermittently in this manner (step S102, corresponding to “analysis step” in the scope of claims). In the present embodiment, the analysis unit calculates a “change rate of average luminosity” as the parameter to evaluate the change of membrane potential of cell 101 (corresponding to “parameter about adhesion” in the scope of claims).
When the image reception unit 201 receives the reflection interference images sequentially output from the reflection interference detection camera 110, the analysis unit 202 calculates the average luminosity I(t) of the measurement region in each of the reflection interference images and calculates a change rate dI relative to an average luminosity of the measurement region acquired in advance before chemical dispensation (which will be referred to hereinafter as average luminosity I(base) as a base”) (step S103, corresponding to “analysis step” in the scope of claims). […] The change rate dI is calculated by the formula below. […]
The analysis unit 202 detects a change of membrane potential of the cells 101 on the basis of the change rate dI calculated by the above formula. Namely, when a predetermined change rate dI is calculated, the analysis unit 202 makes such a valuation that there is some change detected in membrane potential in the cells 101. The analysis unit 202 may output a plot along time axis of the change rate dI (%) relative to the average luminosity before chemical dispensation calculated by the above formula, e.g., graphs as shown in (A) of FIGS. 8 and (B) of FIG. 8. […]

For `[Cl-].[K+]` [KCl, potassium chloride], the “change rate of average luminosity at the peak” value runs as follows: (KCl concentration 6.25 mM) “+8%”; (KCl concentration 25 mM) “+35%”; (KCl concentration 50 mM) “+55%”; (KCl concentration 100 mM) “+95%”. In addition, the “change of reflection interference image after dispensation” value (image at 5 minutes after dispensation, FIG. 9) is on record as “the CHO cells departed from the transparent member on which the cells were laid, to make the reflection interference image brighter”.

(Values after US9423343B2, “Membrane potential change detection device and membrane potential change detection method” (HAMAMATSU PHOTONICS K.K., priority 2010, dated 2016).)
